Measured values as given in patent EP0353678B1, “FR-901154 and FR-901155 substances, a process for their production” (priority 1988, dated 1990).

Experiments:
[1] = tested on: Aspergillus niger IFO 4417; test: Antimicrobial activity against fungi, serial agar dilution method in Sabouraud agar; assay type: cell-based; parameters: unit not given here; details: 30°C for 24 hours
Protocol: Antimicrobial activities of the FR-901154 and FR-901155 Substances Antimicrobial activities of the FR-901154 and FR-901155 substances against various fungi were determined by a serial agar dilution method in a Sabouraud agar. Minimum inhibitory concentrations (MIC) were expressed in terms of »g/ml after incubation at 30°C for 24 hours. […]

[2] = Solubility (physical and chemical properties); assay type: physicochemical
Protocol: (23)/(D) [formula] : -74° (c = 1.8, CHCl₃) (8) Ultraviolet Absorption Spectrum: end absorption (9) Infrared Absorption Spectrum: [drawing 4] 3570, 3500, 2940, 2880, 2820, 1740, 1710, 1700, 1640, 1460, 1450, 1380, 1350, 1320, 1280, 1230, 1190, 1170, 1140, 1100, 1090, 1050, 1040, 1000, 990, 940, 910 cm⁻¹ (10) ¹³C Nuclear Magnetic Resonance Spectrum: δ(ppm, CDCl₃, 100MHz): [formula] [formula] (11) ¹H Nuclear Magnetic Resonance Spectrum: the chart of which being shown in Figure 3, (12) Thin Layer Chromatography: […]

## C=CCC1/C=C(\C)CC(C)CC(OC)C2OC(O)(C(=O)C(=O)N3CCCCC3C(=O)OC(/C(C)=C/C3CCC(O)C(O)C3)C(C)C(O)CC1=O)C(C)CC2OC (stereo not shown) [FR-901154]
[1]
  MIC Value: 0.025

## CCCC1C=C(C)CC(C)CC(OC)C2OC(O)(C(=O)C(=O)N3CCCCC3C(=O)OC(C(C)=CC3CCC(O)C(OC)C3)C(C)C(O)CC1=O)C(C)CC2OC (stereo not shown) [FR-901156, 1,14-dihydroxy-12-[2-(4-hydroxy-3-methoxycyclohexyl)-1-methylvinyl]-23,25-dimethoxy-13,19,21,27-tetramethyl-17-propyl-11,28-dioxa-4-azatricyclo[22.3.1.0^4,9]octacos-18-ene-2,3,10,16-tetraone]
[2]; methanol, ethanol, acetone, ethyl acetate, chloroform, diethyl ether, benzene and acetonitrile
  Solubility: Soluble
[2]; n-hexane and petroleum ether
  Solubility: Sparingly Soluble
[2]; water
  Solubility: Insoluble
